Measurements taken from patent publication US20200129412A1, “SILICONE PAD HAVING ACTIVE INGREDIENTS FOR SKIN CARE AND AGAINST SKIN AGING” (Apricot GmbH, priority 2017, published 2020).

Test system: skin of a subject
Assay: Drug absorption study: diffusion of stained hyaluron from silicone pad into the skin
Format: in vivo
Details: 6 mg powdered hyaluron stained green in adhesive layer; 2 weeks of daily use on skin
Method: FIG. 3A depicts a silicone pad with an adhesive layer. The adhesive layer comprises 6 mg of powdered hyaluron (<20 T Dalton). […] For manufacturing a silicone pad, the adhesive layer was bonded to a silicone body. The silicone pad was applied daily to the skin of a subject for a period of 2 weeks.

Substance: hyaluron
- concentration of hyaluron in the silicone pad after use (decrease of color): decreases markedly
- distribution of hyaluron from the pad: delivered to the skin's lower layers
